Reference: patent US20230339981A1, “KRAS G12D MODULATING COMPOUNDS” (priority 2022, published 2023)

What was measured:
GDP-loaded KRAS G12D = GDP-loaded KRAS G12D (Homo sapiens (Human), UniProt P01116, G12D); assay: KRAS G12D (GDP) biochemical assay (TR-FRET probe displacement); assay type: binding; conditions: 2 hours
Procedure, shortened: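 Compound pre-incubated 30 min with GDP-loaded KRAS G12D in 50 mM Hepes pH 7.4, 150 mM NaCl, 5 mM MgCl2, 0.005% Tween-20, then Eu-streptavidin and TR-FRET probe added. After 2 h at room temperature, TR-FRET ratio read; IC50 is 50% ratio decrease, sigmoidal fit.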

GP2D (KRAS G12D) cells = assay: 2D cell viability assay (CellTiter-Glo); assay type: cell-based; conditions: 4 days
Procedure, shortened: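 GP2D (KRAS G12D) cells, 1000/well in RPMI + 10% FBS, were plated onto compound (1:3 DMSO series) and grown 4 days at 37 °C, 5% CO2 in 2D. CellTiter-Glo luminescence was read; EC50 is the concentration giving 50% signal decrease, from sigmoidal fit.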

AsPC-1 (KRAS G12D) cells = assay: 3D cell viability assay (spheroids, CellTiter-Glo 3D); assay type: cell-based; conditions: AsPC-1 cells, 3D spheroids, 4 days
Procedure, shortened: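 AsPC-1 cells (1000/well) in DMEM with 10% FBS formed spheroids over 3 days at 37 °C in ultra-low attachment plates, then were treated with 1:3 serial dilutions for 4 days. Viability read by CellTiter-Glo 3D luminescence; EC50 as concentration giving 50% signal decrease, sigmoidal fit.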

Row | Molecule | IC50 (GDP-loaded KRAS G12D) [nM] | EC50 (GP2D (KRAS G12D) cells; GP2d, 96 h) [nM] | EC50 (AsPC-1 (KRAS G12D) cells; Homo sapiens, ASPC1, 96 h) [nM] | EC50 (GP2D (KRAS G12D) cells) [nM] | EC50 (AsPC-1 (KRAS G12D) cells) [nM]
1 | C#Cc1c(F)c(F)cc2cc(O)cc(-c3nc4c5c(nc(OC[C@@]67CCCN6C[C@H](F)C7)nc5c3F)N3C[C@H]5CC[C@H](N5)[C@H]3CO4)c12 [Example 30, 5-ethynyl-6,7-difluoro-4-((5aS,6S,9R)-1-fluoro-12-(((2R,7aS)-2-fluorotetrahydro-1H-pyrrolizin-7a(5H)-yl)methoxy)-5a,6,7,8,9,10-hexahydro-5H-4-oxa-3,10a,11,13,14-pentaaza-6,9-methanonaphtho[1,8-ab]heptalen-2-yl)naphthalen-2-ol] | 0.2 | 11 | 260 | – | –
2 | C#Cc1c(F)ccc2cc(O)cc(-c3nc4c5c(nc(OCC6(CN7CCC8(CC7)CC8(F)F)CC6)nc5c3F)N3C[C@H]5CC[C@H](N5)[C@H]3CC4)c12 [Example 185, 4-((5aR,6S,9R)-12-((1-((1,1-difluoro-6-azaspiro[2.5]octan-6-yl)methyl)cyclopropyl)methoxy)-1-fluoro-4,5,5a,6,7,8,9,10-octahydro-3,10a,11,13,14-pentaaza[6,9]methanonaphtho[1,8-ab]heptalen-2-yl)-5-ethynyl-6-fluoronaphthalen-2-ol] | 0.4 | 2.7 | 23.1 | – | –
3 | C#Cc1c(F)ccc2cccc(-c3nc4c5c(nc(OC[C@@]67CCCN6C[C@H](F)C7)nc5c3F)N3C[C@H]5CC[C@H](N5)[C@H]3CC[C@H]4C)c12 [Example 171, (4R,6aR,7S,10R)-2-(8-ethynyl-7-fluoronaphthalen-1-yl)-1-fluoro-13-(((2R,7aS)-2-fluorotetrahydro-1H-pyrrolizin-7a(5H)-yl)methoxy)-4-methyl-5,6,6a,7,8,9,10,11-octahydro-4H-3,11a,12,14,15-pentaaza-7,10-methanocyclohepta[4,5]cycloocta[1,2,3-de]naphthalene] | < 0.1 | 1.9 | 120 | – | –
4 | C#Cc1c(F)ccc2cc(O)cc(-c3nc4c5c(nc(OC[C@@]67CCCN6[C@H](CF)CC7)nc5c3F)N3C[C@H]5CC[C@H](N5)[C@H]3CC4)c12 [Example 165, 5-ethynyl-6-fluoro-4-((5aR,6S,9R)-1-fluoro-12-(((3S,7aS)-3-(fluoromethyl)tetrahydro-1H-pyrrolizin-7a(5H)-yl)methoxy)-4,5,5a,6,7,8,9,10-octahydro-3,10a,11,13,14-pentaaza-6,9-methanonaphtho[1,8-ab]heptalen-2-yl)naphthalen-2-ol] | < 0.1 | 0.7 | 3.9 | – | –
5 | Oc1cc(-c2nc3c4c(nc(OC[C@@]56CCCN5C[C@H](F)C6)nc4c2F)N2C[C@H]4CC[C@H](N4)[C@H]2CO3)c2c(Cl)cccc2c1 [Example 17, 5-chloro-4-((5aS,6S,9R)-1-fluoro-12-(((2R,7aS)-2-fluorotetrahydro-1H-pyrrolizin-7a(5H)-yl)methoxy)-5a,6,7,8,9,10-hexahydro-5H-4-oxa-3,10a,11,13,14-pentaaza-6,9-methanonaphtho[1,8-ab]heptalen-2-yl)naphthalen-2-ol] | 0.4 | 49 | 180 | – | –
6 | C#Cc1c(F)ccc2cc(O)cc(-c3nc4c5c(nc(OC[C@@]67CCCN6[C@H](COC(C6CC6)C(F)(F)F)CC7)nc5c3F)N3C[C@H]5CC[C@H](N5)[C@H]3CC4)c12 (stereo partly drawn) [Example 110, 4-((5aR,6S,9R)-12-(((3S,7aS)-3-((1-cyclopropyl-2,2,2-trifluoroethoxy)methyl)tetrahydro-1H-pyrrolizin-7a(5H)-yl)methoxy)-1-fluoro-4,5,5a,6,7,8,9,10-octahydro-3,10a,11,13,14-pentaaza-6,9-methanonaphtho[1,8-ab]heptalen-2-yl)-5-ethynyl-6-fluoronaphthalen-2-ol] | 0.3 | – | – | 36.1 | 51
7 | C#Cc1c(F)ccc2cc(O)cc(-c3nc4c5c(nc(OC[C@@]67CCCN6C[C@H](F)C7)nc5c3F)N3C[C@@]5(C)CC[C@H](N5)[C@H]3CC4)c12 [Example 190, 5-ethynyl-6-fluoro-4-((5aR,6S,9R)-1-fluoro-12-(((2R,7aS)-2-fluorotetrahydro-1H-pyrrolizin-7a(5H)-yl)methoxy)-9-methyl-4,5,5a,6,7,8,9,10-octahydro-3,10a,11,13,14-pentaaza-6,9-methanonaphtho[1,8-ab]heptalen-2-yl)naphthalen-2-ol] | 0.1 | 1.5 | 7.9 | – | –
8 | C#Cc1c(F)ccc2cccc(-c3nc4c5c(nc(OC[C@@]67CCCN6C[C@H](F)C7)nc5c3F)N3C[C@H]5CC[C@H](N5)[C@H]3[C@H](C)O4)c12 [Example 116, (5S,5aS,6S,9R)-2-(8-ethynyl-7-fluoronaphthalen-1-yl)-1-fluoro-12-(((2R,7aS)-2-fluorotetrahydro-1H-pyrrolizin-7a(5H)-yl)methoxy)-5-methyl-5a,6,7,8,9,10-hexahydro-5H-4-oxa-3,10a,11,13,14-pentaaza-6,9-methanonaphtho[1,8-ab]heptalene] | 0.6 | 6 | 25 | – | –
9 | C#Cc1c(F)ccc2cccc(-c3nc4c5c(nc(OC[C@@]67CCCN6C[C@H](F)C7)nc5c3F)N3C[C@@]5(C)CC[C@H](N5)[C@H]3CC4)c12 [Example 191, (5aR,6S,9R)-2-(8-ethynyl-7-fluoronaphthalen-1-yl)-1-fluoro-12-(((2R,7aS)-2-fluorotetrahydro-1H-pyrrolizin-7a(5H)-yl)methoxy)-9-methyl-4,5,5a,6,7,8,9,10-octahydro-3,10a,11,13,14-pentaaza-6,9-methanonaphtho[1,8-ab]heptalene] | 2 | 39.8 | 110 | – | –
10 | 4-((5S,5aS,6S,9R)-5-ethyl-1-fluoro-12-(((2R,7aS)-2-fluorotetrahydro-1H-pyrrolizin-7a(5H)-yl)methoxy)-5a,6,7,8,9,10-hexahydro-5H-4-oxa-3,10a,11,13,14-pentaaza-6,9-methanonaphtho[1,8-ab]heptalen-2-yl)-5-ethynyl-6-fluoronaphthalen-2-ol [Example 80] | 0.1 | – | – | 2.2 | 2
11 | C#Cc1c(F)ccc2cc(O)cc(-c3nc4c5c(nc(OC[C@@]67CCCN6[C@H](COC(C(F)(F)F)(C(F)(F)F)C(F)(F)F)CC7)nc5c3F)N3C[C@H]5CC[C@H](N5)[C@H]3CCC4)c12 [Example 181, 5-ethynyl-6-fluoro-4-((6aR,7S,10R)-1-fluoro-13-(((3S,7aS)-3-(((1,1,1,3,3,3-hexafluoro-2-(trifluoromethyl)propan-2-yl)oxy)methyl)tetrahydro-1H-pyrrolizin-7a(5H)-yl)methoxy)-5,6,6a,7,8,9,10,11-octahydro-4H-3,11a,12,14,15-pentaaza-7,10-methanocyclohepta[4,5]cycloocta[1,2,3-de]naphthalen-2-yl)naphthalen-2-ol] | 0.5 | 0.3 | 6.9 | – | –
12 | C#Cc1c(F)ccc2cc(O)cc(-c3nc4c5c(nc(OCC6(CN7CCC(COC(C(F)(F)F)(C(F)(F)F)C(F)(F)F)CC7)CC6)nc5c3F)N3C[C@H]5CC[C@H](N5)[C@H]3CC4)c12 [Example 143, 5-ethynyl-6-fluoro-4-((5aR,6S,9R)-1-fluoro-12-((1-((4-(((1,1,1,3,3,3-hexafluoro-2-(trifluoromethyl)propan-2-yl)oxy)methyl)piperidin-1-yl)methyl)cyclopropyl)methoxy)-4,5,5a,6,7,8,9,10-octahydro-3,10a,11,13,14-pentaaza-6,9-methanonaphtho[1,8-ab]heptalen-2-yl)naphthalen-2-ol] | 1.9 | 3.1 | 110 | – | –
13 | Oc1cc(-c2nc3c4c(nc(OC[C@@]56CCCN5C[C@H](F)C6)nc4c2F)N2C[C@H]4CC[C@H](N4)[C@H]2CO3)c2c(OC3CC3)c(F)ccc2c1 [Example 42, 5-cyclopropoxy-6-fluoro-4-((5aS,6S,9R)-1-fluoro-12-(((2R,7aS)-2-fluorotetrahydro-1H-pyrrolizin-7a(5H)-yl)methoxy)-5a,6,7,8,9,10-hexahydro-5H-4-oxa-3,10a,11,13,14-pentaaza-6,9-methanonaphtho[1,8-ab]heptalen-2-yl)naphthalen-2-ol] | 2 | 28 | 95 | – | –
14 | Oc1cc(-c2nc3c4c(nc(OC[C@@]56CCCN5C[C@@]5(CC5(F)F)C6)nc4c2F)N2C[C@H]4CC[C@H](N4)[C@H]2CC3)c2c(OC(F)(F)F)c(F)ccc2c1 [Example 99, 4-((5aR,6S,9R)-12-(((1S,7a'S)-2,2-difluorodihydro-1′H,3′H-spiro[cyclopropane-1,2′-pyrrolizin]-7a′(5′H)-yl)methoxy)-1-fluoro-4,5,5a,6,7,8,9,10-octahydro-3,10a,11,13,14-pentaaza[6,9]methanonaphtho[1,8-ab]heptalen-2-yl)-6-fluoro-5-(trifluoromethoxy)naphthalen-2-ol] | 0.6 | 7.4 | 110 | – | –
15 | C#Cc1c(F)ccc2cccc(-c3nc4c5c(nc(OC[C@@]67CCCN6C[C@H](F)C7)nc5c3F)N3C[C@H]5CC[C@H](N5)[C@@H]3CC4)c12 [Example 170, (5aS,6S,9R)-2-(8-ethynyl-7-fluoronaphthalen-1-yl)-1-fluoro-12-(((2R,7aS)-2-fluorotetrahydro-1H-pyrrolizin-7a(5H)-yl)methoxy)-4,5,5a,6,7,8,9,10-octahydro-3,10a,11,13,14-pentaaza-6,9-methanonaphtho[1,8-ab]heptalene] | 18.1 | 100 | > 1000 | – | –
